PubChem BioAssay (NCI)
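The compound was tested at five concentrations on cells cultured in 96-well plates, with a 48-hour exposure period. GI50 is the concentration that inhibits growth by half. Definition used: TGI = concentration required for complete inhibition of growth.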

Tests used:
Assay in all cases: NCI anticancer screen, dose series, 48 h
[1] = test system: ACHN renal
[2] = test system: OVCAR-3 ovarian
[3] = test system: SN12C renal
[4] = test system: SF-539 CNS
[5] = test system: HCC-2998 colon
[6] = test system: SF-268 CNS
[7] = test system: SF-295 CNS
[8] = test system: HCT-15 colon
[9] = test system: MCF7 breast
[10] = test system: SK-MEL-2 melanoma
[11] = test system: UO-31 renal

Row | SMILES | TGI [1] [µM] | TGI [2] [µM] | TGI [3] [µM] | TGI [4] [µM] | TGI [5] [µM] | TGI [6] [µM] | TGI [7] [µM] | TGI [8] [µM] | TGI [9] [µM] | TGI [10] [µM] | TGI [11] [µM] | GI50 [1] [µM] | GI50 [3] [µM] | GI50 [10] [µM] | GI50 [5] [µM] | GI50 [7] [µM] | GI50 [8] [µM] | GI50 [11] [µM] | GI50 [9] [µM]
1 | Cc1ccn2c(=O)cc(-c3ccccc3)nc2c1 | > 100 | > 100 | > 100 | > 100 | > 100 | > 100 | > 100 | > 100 | > 100 |  |  |  |  |  |  |  |  |  | 
2 | O=c1c2c([N+](=O)[O-])cccc2nc2[nH]c3ccccc3n12 | 29 | 70.3 | > 75 | 25.3 | 52.2 | 62 | > 75 | > 75 | > 75 | 42.5 |  |  |  |  |  |  |  |  | 
3 | NC1=NS(=O)(=O)Nc2nc(-c3ccc([N+](=O)[O-])cc3)[nH]c21 | > 100 | > 100 | > 100 | > 100 | > 100 | > 100 | > 100 | > 100 |  | > 100 | > 100 |  |  |  |  |  |  |  | 
4 | c1cc2nnnn2nc1N1CCCC1 | > 100 |  | > 100 | > 100 | > 100 | > 100 | > 100 | > 100 | > 100 | > 100 | > 100 |  |  |  |  |  |  |  | 
5 | Cc1ccc(S(=O)(=O)OCC(=O)O)cc1 | > 100 | > 100 | > 100 |  |  | > 100 | > 100 | > 100 |  | > 100 | > 100 |  |  |  |  |  |  |  | 
6 | Nn1c(CCCCCCCCc2nnc(COc3ccc(Cl)cc3)n2N)nnc1COc1ccc(Cl)cc1 | > 100 |  | > 100 |  | > 100 | > 100 | > 100 | > 100 | > 100 | > 100 | > 100 |  |  |  |  |  |  |  | 
7 | CCn1nc2c3c(ncn3C(C)(C)O2)c1=O | > 100 |  | > 100 |  | > 100 | > 100 | > 100 | > 100 | > 100 | > 100 | > 100 |  |  |  |  |  |  |  | 
8 | NC1=NS(=O)(=O)Nc2nc(-c3ccc(Cl)cc3)c(-c3ccc(Cl)cc3)nc21 | > 100 | > 100 | > 100 | > 100 | > 100 | > 100 | > 100 |  |  |  | > 100 |  |  |  |  |  |  |  | 
9 | COC(=O)N/N=C(\C)C(CN1CCCCC1)C(C1=C(O)c2ccccc2OC1)c1ccccc1 (stereo not given) | > 100 | > 100 | > 100 | > 100 |  | > 100 | > 100 | > 100 |  | > 100 | > 100 |  |  |  |  |  |  |  | 
10 | O=C1NC(N/N=C/C(O)C(O)C(O)CO)=N/C1=C\c1ccco1 (stereo not given) | > 100 | > 100 | > 100 | > 100 | > 100 | > 100 | > 100 | > 100 | > 100 |  |  |  |  |  |  |  |  |  | 
11 | Nc1ccc(N=Nc2ccccc2)cc1 | > 100 | 69.1 | > 100 | > 100 | > 100 |  | 57.1 | > 100 | > 100 | 68.4 | > 100 |  |  |  |  |  |  |  | 
12 | COc1cc(C2SCC(=O)N2c2ccc(-c3ccc(-n4c(-c5ccccc5)nc5ccccc5c4=O)cc3)cc2)cc(OC)c1OC (stereo not given) | > 100 | 80.9 | > 100 | > 100 | > 100 | > 100 |  | > 100 | > 100 | 56.5 | > 100 |  |  |  |  |  |  |  | 
13 | Cc1cc(C)cc(Nc2cc(=O)[nH]c(=O)[nH]2)c1 | > 100 | > 100 | > 100 | > 100 | > 100 | > 100 | > 100 | > 100 | > 100 |  | > 100 |  |  |  |  |  |  |  | 
14 | C[C@]12CCc3nc(Nc4ccccc4)sc3C1=CC[C@@H]1[C@@H]2CC[C@]2(C)/C(=N/NC(N)=S)CC[C@@H]12 | > 100 |  | > 100 |  | > 100 |  | 72.3 | 6.25 | > 100 | > 100 | > 100 | 3.67 | 3.52 | 5.89 | 32.6 | 3.75 | 1.64 | 3.71 | 1.08
15 | CCOC(=O)/C1=C(\C)N(c2ccc(C)cc2)C(=O)c2ccccc2C(=O)c2c(OC(C)=O)ccc(OC(C)=O)c21 | 77.2 | 39.3 | 50.5 | 69.1 |  | > 100 | 43.2 | 43.9 | 97.7 | 82.7 | > 100 |  |  |  |  |  |  |  | 
16 | CCC1(C)N=C(c2cnccn2)NN1c1ccc(Cl)cc1 (stereo not given) | > 100 | > 100 | 72.3 | > 100 |  | > 100 | > 100 | > 100 | > 100 | > 100 | > 100 |  |  |  |  |  |  |  | 
17 | O=C(CSc1nnc(Cc2ccccc2)o1)Nc1ccc([N+](=O)[O-])cc1 | > 100 | > 100 | > 100 | > 100 | > 100 | > 100 | > 100 | > 100 |  | > 100 | > 100 |  |  |  |  |  |  |  | 
18 | C=CCCC(=O)CC(O)(C(F)(F)F)C(F)(F)F | > 100 | > 100 |  | > 100 | > 100 |  | > 100 | > 100 | > 100 | > 100 | > 100 |  |  |  |  |  |  |  | 
19 | O=c1[nH]/c(=C/c2ccc(OCc3ccccc3)cn2)c(=O)[nH]/c1=C/c1ccc(O)cc1 | > 100 | > 76.3 | 8.9 | 2.09 | 5.21 |  | > 100 | > 100 | > 100 | > 46 | 1.4 |  |  |  |  |  |  |  | 
20 | CC(=O)Nc1cc2c(s1)CCC1CC(=O)NN=C21 (stereo not given) | > 100 | > 100 | > 100 | > 100 |  | > 100 | > 100 | > 100 |  | > 100 | > 100 |  |  |  |  |  |  |  | 
21 | CC(=O)OC1CC2C(C)(C)OC(=O)CC(OC(C)=O)[C@]2(C)C2CCC3(C)C(=CCC3[C@H]3COC(=O)C3)[C@]12C (stereo not given in full) | > 100 | > 100 | > 100 | > 100 | > 100 | > 100 | > 100 | > 100 |  | > 100 | > 100 |  |  |  |  |  |  |  | 
